From PMC7032066 (Insect biochemistry and molecular biology, 2019)
Starred links: 1 amine or outer side, 2 acyl side, 3 side chain; linkers in the order of their positions; H or OH if unused. Non-standard residues stand in square brackets, D forms with d. Residues, ends and D or L forms follow the SMILES beside them. Mur = C[C@@H](O[C@H]1[C@H](O)[C@@H](CO)OC(O)[C@@H]1N[*:1])C(=O)[*:2]; d(isoGln) = NC(=O)[C@@H](CCC(=O)[*:2])N[*:1]

Molecular target: T1, M. sexta PGRP1 (Manduca sexta, UniProt Q86RS6)
T1 sequence (Q86RS6 20-191): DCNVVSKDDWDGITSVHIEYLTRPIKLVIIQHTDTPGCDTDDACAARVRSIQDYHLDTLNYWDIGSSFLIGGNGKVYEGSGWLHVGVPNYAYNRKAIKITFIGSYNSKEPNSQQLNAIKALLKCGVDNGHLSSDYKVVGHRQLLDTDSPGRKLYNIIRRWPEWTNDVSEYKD
Assay: SPR
Format: binding
Settings: HBS-EP pH 7.4 (10 mM HEPES, 150 mM NaCl, 3 mM EDTA, 0.005% polysorbate 20), 25°C

Kd: 45.6 µM
SMILES: CC(=O)N[C@H]1C(O)O[C@H](CO)[C@@H](O)[C@@H]1O[C@H](C)C(=O)N[C@@H](C)C(=O)N[C@H](CCC(=O)N[C@@H](CCCCN)C(=O)N[C@H](C)C(=O)N[C@H](C)C(N)=O)C(N)=O (stereo partly shown) [Lys-MPP] (Ac-[Mur]A[d(isoGln)]K[dA][dA]-NH2)
